In patent US20240034999A1, “IMPROVED REPROGRAMMING, MAINTENANCE AND PRESERVATION FOR INDUCED PLURIPOTENT STEM CELLS” (Fate Therapeutics, Inc., priority 2020, published 2024):

Test system: Human T cells transfected with reprogramming plasmids
Assay: T cell reprogramming efficiency, flow cytometry of iPSC surface markers
Format: cell-based
Details: VPA from around day 2-3 post transfection; three T cell donors; versus no VPA
Experimental: Flow Cytometry Analysis and Sorting Single cell dissociated reprogramming pools were resuspended in chilled staining buffer. Conjugated primary antibodies, including SSEA4-FITC, TRA181-Alexa Fluor-647 and CD30-PE (BD Biosciences), were added to the cell solution and incubated on ice for 15 min. All antibodies were used at 7-10 μL in 100 μL staining buffer per million cells. The resuspended dissociated single cells in staining buffer were spun down and resuspended in staining buffer now containing a ROCK inhibitor and maintained on ice for flow cytometry sorting. Flow cytometry sorting was performed on FACS Aria II (BD Biosciences). The sorted cells were directly ejected into 96-well plates at concentrations of 3 and 9 events per well. Each well was prefilled with FMM2. Upon completion of the sort, 96-well plates were incubated for colony formation and expansion. Seven to ten days post sort, the cells were passaged. Subsequent passages in FMM2 were done routinely upon 75-90% confluency. Flow cytometry analysis was performed on Guava EasyCyte 8 HT (Millipore) and analyzed using FCS Express 4 (De Novo Software). Human T cells from three different donors were transfected with the above reprogramming plasmids on day 0. […] The expression of iPSC surface markers (SSEA4, TRA-1-81, and CD30) was analyzed by flow cytometry.

CCCC(CCC)C(=O)O [VPA, valproic acid]
percentage of SSEA4+TRA-1-81+CD30+ iPSC cells in the population: significantly increased
